# From patent US20210380630A1, “Bio-catalyzed Synthesis of New Aromatase Inhibitors through Structural Modifications of Anticancer Drug Formestane” (priority 2021, published 2021)
# Where two headings read alike, the source gives them in different places.
# Key:
# [1] = molecular target: T1, aromatase (human placental microsomes) (Homo sapiens, UniProt P11511); experiment: human placental aromatase assay; assay type: biochemical
# T1 construct: protein (2 mg) from human placental microsomes; from tissue; host or cells: human placenta (microsomal fraction)
# T1 sequence (P11511 1-503): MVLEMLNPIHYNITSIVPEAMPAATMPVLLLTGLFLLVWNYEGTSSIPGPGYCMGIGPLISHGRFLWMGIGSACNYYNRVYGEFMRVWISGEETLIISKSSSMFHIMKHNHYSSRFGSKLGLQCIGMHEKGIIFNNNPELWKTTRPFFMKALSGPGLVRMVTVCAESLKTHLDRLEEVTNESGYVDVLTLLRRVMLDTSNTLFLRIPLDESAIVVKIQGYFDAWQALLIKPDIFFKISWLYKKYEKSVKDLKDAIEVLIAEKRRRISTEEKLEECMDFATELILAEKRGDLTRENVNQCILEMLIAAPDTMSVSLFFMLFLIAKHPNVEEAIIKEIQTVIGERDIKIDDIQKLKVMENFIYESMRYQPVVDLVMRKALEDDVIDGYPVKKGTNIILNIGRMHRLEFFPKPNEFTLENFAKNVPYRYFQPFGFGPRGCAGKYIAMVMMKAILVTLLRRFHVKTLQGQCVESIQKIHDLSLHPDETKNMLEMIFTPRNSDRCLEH
# [2] = test system: human fibroblast (BJ) normal cell line; experiment: cytotoxicity against BJ normal cell line
SMILES,"IC50 ([1]; human placental microsomes, 10 μM testosterone, estradiol by UPLC, read-out: IC50 aromatase inhibition)",IC50 [1],cytotoxicity to BJ normal cell line [2]
"C[C@]12CC[C@H](O)C(=O)C1C[C@H](O)[C@@H]1[C@@H]2CC[C@]2(C)C(=O)CC[C@@H]12 (stereo partly drawn) [Compound 3, 3β,7β-Dihydroxyandrostane-4,17-dione]",1370 ± 29 nM,–,–
"C[C@]12CCC(=O)C(O)=C1CC[C@@H]1[C@@H]2CC[C@]2(C)C(=O)CC[C@@H]12 [Compound 1, Formestane]",–,335 ± 11 nM,–
"C[C@]12CC[C@H]3[C@@H]([C@H](O)C[C@@]4(O)[C@H](O)C(=O)CC[C@]34C)[C@@H]1CCC2=O [Compound 2, 4α,5α,7α-Trihydroxyandrostane-3,17-dione]",–,5230 ± 94 nM,–
"C[C@]12CC[C@H]3[C@@H]([C@@H](O)C[C@@]4(O)C(=O)[C@@H](O)CC[C@]34C)[C@@H]1CCC2=O [Compound 4, 3β,5α,7β-Trihydroxyandrostane-4,17-dione]",–,386 ± 72 nM,–
"C[C@]12C=CC(=O)C(O)=C1CC[C@@H]1[C@@H]2[C@H](O)C[C@]2(C)C(=O)CC[C@@H]12 [Compound 5, 4,11α-Dihydroxyandrosta-1,4-diene-3,17-dione]",–,34300 ± 532 nM,non-cytotoxic
